Reference: paper PMC12346557, “Design, Synthesis, and Anticancer Evaluation of New Small-Molecule EGFR Inhibitors Targeting NSCLC and Breast Cancer” (International Journal of Molecular Sciences, 2025)

Legend:
A549 cells [1] = test: MTT cytotoxicity assay, A549 cells; type: cell-based, human; conditions: triplicate; for reduction of A549 cell viability: 100 µM, 72 h; for IC50: Homo sapiens, A549, 72 h culture, 1-100 µM
MCF-7 cells [2] = test: MTT cytotoxicity assay, MCF-7 cells; type: cell-based; conditions: Homo sapiens, triplicate; for inhibition at 100 µM: MCF7, 100 µM, 72 h; for IC50: MCF7, 72 h culture, 1-100 µM
Jurkat cells = test: MTT cytotoxicity assay, Jurkat cells; type: cell-based, human; conditions: for IC50: Homo sapiens, Jurkat, MTT; for SI (Selectivity Index): IC50 for PBMC/IC50 for Jurkat cell line
Procedure: A549 and MCF-7 human cancer cell lines were cultured in Dulbecco’s Modified Eagle’s Medium (DMEM) (Wako Pure Chemical Industries, Osaka, Japan) supplemented with 10% fetal bovine serum (FBS) (Equitech-Bio, Kerrville, TX, USA). […] All media were supplemented with 89 μg/mL of streptomycin (Meiji Seika Pharma, Tokyo, Japan). […] Cancer cells and PBMCs were seeded into 24-well and 96-well microtiter tissue culture plates (Iwaki, Asahi Glass Co., Chiba, Japan) at densities of 4 × 10^4 cells/mL and 5 × 10^5 cells/mL, respectively, and incubated for 72 h prior to drug treatment. The optimal seeding density for cytotoxicity assays was determined through preliminary testing. […] The cellular reduction MTT (Dojindo Molecular Technologies, Kumamoto, Japan) was assessed following established protocols from the literature, with slight modifications.

PBMCs = test: MTT cytotoxicity assay, PBMCs (healthy); type: cell-based; conditions: PBMC
Procedure: A549 and MCF-7 human cancer cell lines were cultured in Dulbecco’s Modified Eagle’s Medium (DMEM) (Wako Pure Chemical Industries, Osaka, Japan) supplemented with 10% fetal bovine serum (FBS) (Equitech-Bio, Kerrville, TX, USA). Jurkat cells, derived from human leukemia, were maintained in RPMI 1640 medium (Wako Pure Chemical Industries) with 10% FBS. PBMCs (Precision Bioservices, Frederick, MD, USA) were cultured in RPMI 1640 medium supplemented with 10% human AB serum (HS) (Gemini, Woodland, CA, USA). All media were supplemented with 89 μg/mL of streptomycin (Meiji Seika Pharma, Tokyo, Japan). Cells were incubated at 37 °C in a humidified atmosphere containing 95% air and 5% CO2. Cancer cells and PBMCs were seeded into 24-well and 96-well microtiter tissue culture plates (Iwaki, Asahi Glass Co., Chiba, Japan) at densities of 4 × 10^4 cells/mL and 5 × 10^5 cells/mL, respectively, and incubated for 72 h prior to drug treatment. The optimal seeding density for cytotoxicity assays was determined through preliminary testing. […] The cellular reduction MTT (Dojindo Molecular Technologies, Kumamoto, Japan) was assessed following established protocols from the literature, with slight modifications.

MCF-7 cells [3] = test: Annexin V/ethidium homodimer-III apoptosis staining, MCF-7 cells; type: cell-based, human; conditions: IC50 concentration, 24 h, compared to control
Procedure: (§1) In this method, green staining indicates apoptotic cells, red indicates necrotic cells, and yellow represents cells in the late stages of apoptosis. This staining was analyzed using a fluorescence microscope. […] Furthermore, the apoptotic effect of B-2 on MCF-7 cells was assessed, showing that 4.3% of the cells underwent apoptosis after treatment, a result that was statistically significant (Figure 5b).
(§2) A549 and MCF-7 cells were treated with B-1 and B-2 at its IC50 concentration for 24 h. Following treatment, the cells were detached using 0.05% trypsin, washed twice with 1× binding buffer, and incubated in the dark at r.t. for 20 min with a staining solution containing 50 μL of 1× binding buffer, 4 μL of FITC-Annexin V solution, 4 μL of ethidium homodimer III solution, and 4 μL of Hoechst 33342 solution. After staining, the cells were washed again with 1× binding buffer, fixed in 2% paraformaldehyde, rinsed with PBS, and analyzed using the Biorevo Fluorescence BZ-9000 all-in-one fluorescence microscope (Keyence, Osaka, Japan).

[4] = target: T1, recombinant human EGFR (amino acids 695 to C-terminus) (Homo sapiens, UniProt P00533); test: EGFR Kinase Enzyme System / ADP-Glo kinase assay; type: biochemical
T1 construct: recombinant human EGFR (amino acids 695 to C-terminus); purchased Promega Corporation V3831
T1 sequence (P00533 695-1210 limits assumed): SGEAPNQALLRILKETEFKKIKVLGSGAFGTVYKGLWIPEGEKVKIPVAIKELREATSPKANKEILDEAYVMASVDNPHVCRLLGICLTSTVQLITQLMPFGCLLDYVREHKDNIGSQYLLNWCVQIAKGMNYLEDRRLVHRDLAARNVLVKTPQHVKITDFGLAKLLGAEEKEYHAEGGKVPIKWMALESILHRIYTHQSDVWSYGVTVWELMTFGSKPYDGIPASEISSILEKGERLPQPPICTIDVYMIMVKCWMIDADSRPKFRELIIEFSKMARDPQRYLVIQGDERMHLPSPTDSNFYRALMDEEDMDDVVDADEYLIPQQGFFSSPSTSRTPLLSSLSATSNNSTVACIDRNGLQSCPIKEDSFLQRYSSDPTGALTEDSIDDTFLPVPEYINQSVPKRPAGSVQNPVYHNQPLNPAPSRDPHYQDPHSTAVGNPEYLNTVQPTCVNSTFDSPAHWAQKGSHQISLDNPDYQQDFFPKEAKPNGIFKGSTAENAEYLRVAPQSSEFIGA
Procedure: Overexpression or mutation of the EGFR gene markedly enhances cell growth and proliferation, particularly in NSCLC [41] and breast cancer, making EGFR a well-established and effective therapeutic target for these diseases. Due to their potent activity against NSCLC and breast cancer, B-1 and B-2 were further examined for their potential to inhibit EGFR.
The kinase profiling assay (EGFR Kinase Enzyme System, V3831) was conducted according to the manufacturer’s protocol (Promega Corporation, Madison, WI, USA), with minor modifications. In brief, 95 μL of 2.5× kinase buffer and 15 μL of 100 μM ATP solution were used to prepare dilutions of recombinant human EGFR (amino acids 695 to C-terminus) and its substrate (4:1 Glu:Tyr mixture). Reactions were set up in a 384-well plate, each containing 2 μL of kinase working stock, 2 μL of ATP/substrate working stock, and 1 μL of test compound solution or 5% DMSO as a control. After a 2 h incubation at r.t., kinase activity was measured using the ADP-Glo Kinase Assay (Promega), following the manufacturer’s instructions. Specifically, 5 μL of ADP-Glo Reagent was added to each well and incubated for 40 min, followed by 10 μL of Kinase Detection Reagent and a further 30 min incubation at r.t. Luminescence was recorded using the Infinite M1000 microplate reader (Tecan, Grödig, Austria) with an integration time of 0.5 to 1 s to assess the compounds’ kinase inhibitory effects in a dose-dependent manner.

A549 cells [5] = test: Annexin V/ethidium homodimer-III apoptosis staining, A549 cells; type: cell-based, human; conditions: IC50 concentration, 24 h, compared to control
Procedure: as §1, §2

SMILES | reduction of A549 cell viability (A549 cells [1]) [%] | IC50 (A549 cells [1]) [µM] | inhibition at 100 µM (MCF-7 cells [2]) [%] | IC50 (MCF-7 cells [2]) [µM] | IC50 (Jurkat cells) [µM] | SI (Selectivity Index) (Jurkat cells) | IC50 (PBMCs) [µM] | apoptosis in MCF-7 cells (MCF-7 cells [3]) [%] | EGFR inhibition ([4]; 1 μM) | EGFR inhibition ([4]; 10 μM) | apoptosis in A549 cells (A549 cells [5]) [%] | inhibition at 1 µM ([4]; 1 μM) [%] | inhibition at 10 µM ([4]; 10 μM) [%]
Cc1ccc(C(=O)/C=C/c2cnc(-c3ccc(Cl)cc3)nc2)cc1 [Compound B-1, (E)-3-(2-(4-Chlorophenyl)pyrimidin-5-yl)-1-(4-methylphenyl)-2-propen-1-one] | 38 | > 100 | 73 | 6.1 ± 1.26 | 2.12 ± 0.48 | 57.08 | 121 ± 14.8 | 11.6 | no inhibitory effect | no inhibitory effect |  |  | 
COc1ccc(C(=O)/C=C/c2cnc(-c3ccc(Cl)cc3)nc2)cc1 [Compound B-2, (E)-3-(2-(4-Chlorophenyl)pyrimidin-5-yl)-1-(4-methoxyphenyl)-2-propen-1-one] | 73 | 2.14 ± 0.83 | 52 | 8.91 ± 1.38 | 2.96 ± 0.44 | 23.20 | 68.7 ± 9.82 | 4.3 |  |  | 16.8 | 26 | 66
